Consider 2 compounds from publication PMC5641094, “A peptide antagonist of Prep1-p160 interaction improves ceramide-induced insulin resistance in skeletal muscle cells” (Oncotarget, 2017).

Like-named read-outs stand apart in the source and are kept apart here.

The test system of one assay is p160 mRNA. Nature of the assay: Real-time RT-PCR of p160 mRNA in L6 cells. It counts as cell-based, rat. The conditions noted are these: C2cer 10μM, 18h, normalized to GAPDH. Here is the method: (§1) Figure 2 Effect of ceramides on Prep1 and p160 mRNA expression and of Prep1-p160 coprecipitation L6 cells were treated with C2cer (10μM) for 18h and Prep1 (A) or p160 (B) mRNA levels were analyzed by real-time RT-PCR analysis. Data were normalized by the amount of GAPDH mRNA, used as internal control. Bars represent the mean ± SD of three independent experiments, each performed in triplicate. (C) L6 cells were treated with cycloheximide (CHX) at 40μg/mL concentration for 18h and the lysates were analyzed by Western blot with anti-p160 and beta-actin. The autoradiograph shown is representative of three different experiments and subjected to densitometric analysis. (D) Protein lysates from L6 cells treated with C2cer as indicated, were immunoprecipitated with Prep1 antibody and immunoblotted with p160 or Prep1 antibodies. The autoradiograph shown is representative of three different experiments and subjected to densitometric analysis. Asterisks denote statistically significant differences (*p<0.05; **p<0.01).
(§2) Total cellular RNA was isolated from L6 cells by using the RNeasy kit (QIAGEN Sciences, Germany), according to manufacturer instructions. 1μg of cell RNA was reverse-transcribed using Superscript III Reverse Transcriptase (Life Technologies Carlsbad, CA, USA). PCR reactions were analyzed using IQTM SYBR Green Supermix (Bio-Rad, Hercules, CA). […]
On the technique in general: Quantitative PCR measures a nucleic acid by following its amplification.

For a further assay, the system named is Prep1 mRNA. Nature of the assay: Real-time RT-PCR of Prep1 mRNA in L6 cells. It counts as cell-based, rat. The conditions noted are these: C2cer 10μM, 18h, normalized to GAPDH, three experiments in triplicate. As to the method: as §1, §2
Assay [1] addresses T1, p160_20-160/Prep1_45-155 binding (Homo sapiens, UniProt Q9BQG0).
T1 construct: pre-incubating the His6-tagged-p160_20-160 at 0.25μM with peptides; made in house
T1 sequence (Q9BQG0 20-160): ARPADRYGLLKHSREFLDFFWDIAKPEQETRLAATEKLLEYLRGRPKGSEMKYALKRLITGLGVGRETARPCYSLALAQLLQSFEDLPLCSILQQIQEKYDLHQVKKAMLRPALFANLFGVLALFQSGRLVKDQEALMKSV
Nature of the assay: ELISA-like competition of p160_20-160/Prep1_45-155 binding. The source says:
To address the significance of the association between Prep1 and p160 mediated by C2cer, we generated a synthetic inhibitor of the Prep1/p160 interaction. […] The synthetic peptide covering such stretch of residues was therefore chosen to generate a potential inhibitor. […] Thus, we designed and chemically synthesized a peptide spanning residues 59-72, hereafter Prep1(59-72), which comprises the predicted α-helix and a short loop at the N-terminus (Supplementary Figure 2A, upper panel). We also designed and prepared an additional peptide with a slightly longer N-terminal end, named Prep1(54-72) (Supplementary Figure 2A, lower panel), to increase the probability of obtaining a molecule with helical features. […] In order to test the affinity of Prep1 synthetic peptides to p160 protein, ELISA-like experiments were developed where N-terminally biotinylated peptide variants were added to p160_20-160 – coated 96-well plates. As shown in Figure 3A either variants bound p160_20-160 domain in a dose-dependent and saturable manner. […]
Figure 3 Design and in vitro effects of Prep1(54-72) peptide on Prep1/p160 association (A) Binding curves of Prep1(59-72) and Prep1(54-72) peptides to p160_20-160 by ELISA-like assays. […] (C) L6 cells were incubated with increasing concentrations of the fluorescein-conjugated peptide (FITC-Prep1(54-72)) and peptide uptake was detected by FACS analysis of fluorescein-labeled cells. […] Protein lysates were immunoprecipitated with Prep1 antibodies and analyzed by Western blot using antibodies for p160 or for Prep1. […] The blots were detected by ECL and autoradiography. […]
ELISA experiments were performed using an integrated platform for High-Throughput Screening (Hamilton Robotics, Bonaduz, CH) comprising a fully equipped Starlet 8 channel liquid handler, a robotic arm, a washer and a multi-wavelength plate reader. […] In particular, several concentrations of biotinylated peptides at several concentrations were added to a plate coated with p160_20-160 (0.1μM) and binding was detected with streptavidin-HRP. […] The binding was detected by anti-His HRP-conjugated antibody. […]
On the technique in general: ELISA stands for enzyme-linked immunosorbent assay.

For the compound `CCCCCCCCCCCCC/C=C/[C@@H](O)[C@H](CO)NC(C)=O` [C2cer, D-erythro-Sphingosine, N-Acetyl-, reference compound], the “effect on p160 mRNA levels” value in the assay on p160 mRNA was “not affected”. For the same compound, the “increase of Prep1 mRNA levels” value in the assay on Prep1 mRNA worked out at 3.2 fold.
Regarding “Ac-KQAIYRHPLFPLLALLFEK-NH2 [Prep1(54-72)]”, the IC50 in assay [1] (His6-p160_20-160 0.25μM pre-incubated with peptide 0.001-10μM, plate coated with Prep1_45-155 (0.10μM), anti-His HRP, average of three experiments, read-out: IC50, inhibition of p160_20-160/Prep1_45-155 binding) is 200 nM; in assay [1] (as restated in the discussion, read-out: IC50, potency in vitro as complex inhibitor) it was around 200 nM.
